From ChEMBL document CHEMBL1201862, “PubChem BioAssay data set” (2004)
Calls of active or inactive are those of the source.

How the values were obtained:
[1] = biological target: T1, Short transient receptor potential channel 4 (Mus musculus, UniProt Q9QUQ5); assay: calcium entry via TRPC4 opening agents – cell-based, HEK293 TRPC4/mu-opioid, Fluo-4 calcium, dose response (AID 434937); assay type: functional
T1 sequence (Q9QUQ5 whole entry): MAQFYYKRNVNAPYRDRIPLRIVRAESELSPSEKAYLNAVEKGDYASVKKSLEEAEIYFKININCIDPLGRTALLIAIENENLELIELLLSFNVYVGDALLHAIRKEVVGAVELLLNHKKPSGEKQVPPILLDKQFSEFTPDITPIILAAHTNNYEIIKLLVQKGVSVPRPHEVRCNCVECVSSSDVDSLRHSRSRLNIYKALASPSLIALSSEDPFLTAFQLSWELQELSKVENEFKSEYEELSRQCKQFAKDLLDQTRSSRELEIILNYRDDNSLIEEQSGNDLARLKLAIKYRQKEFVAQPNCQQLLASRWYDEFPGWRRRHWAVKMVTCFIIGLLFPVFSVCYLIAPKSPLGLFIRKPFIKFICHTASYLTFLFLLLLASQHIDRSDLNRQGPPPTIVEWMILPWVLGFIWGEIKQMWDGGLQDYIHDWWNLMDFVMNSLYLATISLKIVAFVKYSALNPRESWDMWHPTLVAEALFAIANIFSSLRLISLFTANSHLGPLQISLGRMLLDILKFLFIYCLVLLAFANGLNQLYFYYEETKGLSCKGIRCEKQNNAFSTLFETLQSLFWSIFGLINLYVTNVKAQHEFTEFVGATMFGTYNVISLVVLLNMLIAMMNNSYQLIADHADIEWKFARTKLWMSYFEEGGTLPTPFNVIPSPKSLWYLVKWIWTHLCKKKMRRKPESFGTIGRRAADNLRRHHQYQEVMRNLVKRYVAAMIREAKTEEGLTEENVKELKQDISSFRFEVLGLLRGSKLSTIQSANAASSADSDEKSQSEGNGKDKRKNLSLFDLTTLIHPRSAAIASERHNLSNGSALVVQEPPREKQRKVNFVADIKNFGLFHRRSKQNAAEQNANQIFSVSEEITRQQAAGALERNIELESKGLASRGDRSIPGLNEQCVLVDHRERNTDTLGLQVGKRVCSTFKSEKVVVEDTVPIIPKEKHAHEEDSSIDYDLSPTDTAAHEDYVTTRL

[2] = biological target: T1, Short transient receptor potential channel 4; assay: block of DAMGO-driven TRPC4 calcium entry – cell-based, HEK293 TRPC4/mu-opioid, Fluo-4 calcium, dose response (AID 434942); assay type: functional;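 also: potency of inhibitors blocking the TRPC4 calcium response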
[3] = biological target: T2, Alkaline phosphatase, tissue-nonspecific isozyme (Homo sapiens, UniProt P05186); assay: potency against alkaline phosphatase TNAP – biochemical, luminescent, dose response, SAR follow-up (AID 1056)
T2 sequence (P05186 whole entry): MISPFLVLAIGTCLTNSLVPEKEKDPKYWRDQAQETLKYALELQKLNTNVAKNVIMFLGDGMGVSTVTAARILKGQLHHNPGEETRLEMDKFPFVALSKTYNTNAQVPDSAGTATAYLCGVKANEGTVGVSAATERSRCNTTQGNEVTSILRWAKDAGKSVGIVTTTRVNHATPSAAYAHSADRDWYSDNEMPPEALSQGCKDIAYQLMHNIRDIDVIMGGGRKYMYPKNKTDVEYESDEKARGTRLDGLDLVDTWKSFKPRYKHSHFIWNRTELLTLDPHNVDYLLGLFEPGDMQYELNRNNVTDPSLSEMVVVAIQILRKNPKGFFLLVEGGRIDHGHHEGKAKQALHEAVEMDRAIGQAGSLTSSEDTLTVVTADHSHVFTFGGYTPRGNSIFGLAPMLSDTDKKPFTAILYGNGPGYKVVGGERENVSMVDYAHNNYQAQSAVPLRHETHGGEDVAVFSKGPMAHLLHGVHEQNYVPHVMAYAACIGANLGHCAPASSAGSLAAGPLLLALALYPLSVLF

[4] = biological target: Glyceraldehyde-3-phosphate dehydrogenase (Homo sapiens, UniProt P04406)
Glyceraldehyde-3-phosphate dehydrogenase, sequence (P04406 whole entry): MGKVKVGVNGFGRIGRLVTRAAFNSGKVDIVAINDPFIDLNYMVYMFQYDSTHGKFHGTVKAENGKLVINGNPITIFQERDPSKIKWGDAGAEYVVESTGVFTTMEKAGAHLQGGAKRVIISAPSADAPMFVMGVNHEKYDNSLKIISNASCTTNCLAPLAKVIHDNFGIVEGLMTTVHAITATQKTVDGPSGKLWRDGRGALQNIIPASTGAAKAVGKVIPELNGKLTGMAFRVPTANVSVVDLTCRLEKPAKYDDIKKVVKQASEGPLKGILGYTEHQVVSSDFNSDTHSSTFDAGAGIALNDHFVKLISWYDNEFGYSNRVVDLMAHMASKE

Protein RecA = biological target: T3, Protein RecA (Mycobacterium tuberculosis, UniProt P9WHJ3); assay: Fluorescence Cell-Free Homogeneous Dose Retest to Identify Inhibitors of RecA-Intein Splicing Activity. [Related pubchem assays (depositor defined):AID2097, AID2223, AID489010, AID492950]; assay type: functional
T3 sequence (P9WHJ3 whole entry): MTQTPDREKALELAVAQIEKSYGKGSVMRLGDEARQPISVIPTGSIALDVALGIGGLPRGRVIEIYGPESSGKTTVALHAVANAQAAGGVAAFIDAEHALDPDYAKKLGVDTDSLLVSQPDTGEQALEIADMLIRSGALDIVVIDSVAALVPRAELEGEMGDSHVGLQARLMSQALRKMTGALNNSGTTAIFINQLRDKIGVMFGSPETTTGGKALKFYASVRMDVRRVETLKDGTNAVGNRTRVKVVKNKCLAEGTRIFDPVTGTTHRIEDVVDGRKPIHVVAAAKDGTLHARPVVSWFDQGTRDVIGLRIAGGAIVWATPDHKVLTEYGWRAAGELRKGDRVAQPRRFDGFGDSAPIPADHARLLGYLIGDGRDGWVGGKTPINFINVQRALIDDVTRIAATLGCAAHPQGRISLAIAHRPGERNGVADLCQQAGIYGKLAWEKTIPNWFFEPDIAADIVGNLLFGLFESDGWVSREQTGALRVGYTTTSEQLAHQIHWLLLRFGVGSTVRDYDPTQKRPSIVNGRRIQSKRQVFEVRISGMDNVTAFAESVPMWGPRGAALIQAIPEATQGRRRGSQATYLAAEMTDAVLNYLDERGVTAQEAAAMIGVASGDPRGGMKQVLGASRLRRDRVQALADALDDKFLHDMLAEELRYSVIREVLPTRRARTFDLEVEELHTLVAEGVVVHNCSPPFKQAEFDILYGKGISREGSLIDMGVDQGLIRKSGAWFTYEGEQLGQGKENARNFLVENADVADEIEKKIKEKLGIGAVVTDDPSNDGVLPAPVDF

[5] = biological target: G-protein coupled receptor 55 (Homo sapiens, UniProt Q9Y2T6); assay: selective activators of receptor GPR55 – imaging, U2OS cells, beta-arrestin-GFP redistribution, primary screen (AID 1961); assay type: functional
G-protein coupled receptor 55, sequence (Q9Y2T6 whole entry): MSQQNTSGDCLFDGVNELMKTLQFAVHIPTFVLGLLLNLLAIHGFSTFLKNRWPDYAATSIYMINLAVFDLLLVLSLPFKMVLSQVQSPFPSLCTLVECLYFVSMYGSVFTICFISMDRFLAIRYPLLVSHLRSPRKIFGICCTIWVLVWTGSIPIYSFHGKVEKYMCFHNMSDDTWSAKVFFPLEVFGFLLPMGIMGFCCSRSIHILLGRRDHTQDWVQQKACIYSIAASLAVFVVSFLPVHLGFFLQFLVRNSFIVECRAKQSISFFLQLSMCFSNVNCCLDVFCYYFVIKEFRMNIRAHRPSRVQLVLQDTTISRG

[6] = biological target: T4, Microphthalmia-associated transcription factor (Homo sapiens, UniProt O75030); assay: reducers of TRPM1 reporter luminescence, concentration series – cell-based, SK-MEL-5, cherry-picked, set 3, MITF inhibitor project, dose response (AID 493073); assay type: functional;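 also: SK-MEL-5 melanoma cells with luciferase driven by the MITF target TRPM1 promoter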
T4 sequence (O75030 whole entry): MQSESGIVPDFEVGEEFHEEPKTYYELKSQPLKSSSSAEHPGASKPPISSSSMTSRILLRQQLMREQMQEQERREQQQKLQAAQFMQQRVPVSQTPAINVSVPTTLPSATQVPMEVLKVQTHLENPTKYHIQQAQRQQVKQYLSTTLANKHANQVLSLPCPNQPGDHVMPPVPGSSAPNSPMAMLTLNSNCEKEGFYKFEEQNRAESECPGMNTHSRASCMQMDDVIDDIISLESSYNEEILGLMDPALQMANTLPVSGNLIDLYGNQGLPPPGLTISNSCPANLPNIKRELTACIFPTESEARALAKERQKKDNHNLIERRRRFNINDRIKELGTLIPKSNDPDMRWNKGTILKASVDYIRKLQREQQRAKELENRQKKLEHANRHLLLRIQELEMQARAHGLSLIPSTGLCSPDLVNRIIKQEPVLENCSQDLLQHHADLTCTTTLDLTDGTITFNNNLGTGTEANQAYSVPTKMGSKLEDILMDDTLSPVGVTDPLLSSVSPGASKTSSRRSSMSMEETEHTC

[7] = biological target: T5, Replicative DNA helicase DnaB (Mycobacterium tuberculosis, UniProt P9WMR3); assay: DnaB intein splicing inhibitors, dose response, biochemical, cell-free fluorescence (AID 449749); assay type: functional
T5 sequence (P9WMR3 whole entry): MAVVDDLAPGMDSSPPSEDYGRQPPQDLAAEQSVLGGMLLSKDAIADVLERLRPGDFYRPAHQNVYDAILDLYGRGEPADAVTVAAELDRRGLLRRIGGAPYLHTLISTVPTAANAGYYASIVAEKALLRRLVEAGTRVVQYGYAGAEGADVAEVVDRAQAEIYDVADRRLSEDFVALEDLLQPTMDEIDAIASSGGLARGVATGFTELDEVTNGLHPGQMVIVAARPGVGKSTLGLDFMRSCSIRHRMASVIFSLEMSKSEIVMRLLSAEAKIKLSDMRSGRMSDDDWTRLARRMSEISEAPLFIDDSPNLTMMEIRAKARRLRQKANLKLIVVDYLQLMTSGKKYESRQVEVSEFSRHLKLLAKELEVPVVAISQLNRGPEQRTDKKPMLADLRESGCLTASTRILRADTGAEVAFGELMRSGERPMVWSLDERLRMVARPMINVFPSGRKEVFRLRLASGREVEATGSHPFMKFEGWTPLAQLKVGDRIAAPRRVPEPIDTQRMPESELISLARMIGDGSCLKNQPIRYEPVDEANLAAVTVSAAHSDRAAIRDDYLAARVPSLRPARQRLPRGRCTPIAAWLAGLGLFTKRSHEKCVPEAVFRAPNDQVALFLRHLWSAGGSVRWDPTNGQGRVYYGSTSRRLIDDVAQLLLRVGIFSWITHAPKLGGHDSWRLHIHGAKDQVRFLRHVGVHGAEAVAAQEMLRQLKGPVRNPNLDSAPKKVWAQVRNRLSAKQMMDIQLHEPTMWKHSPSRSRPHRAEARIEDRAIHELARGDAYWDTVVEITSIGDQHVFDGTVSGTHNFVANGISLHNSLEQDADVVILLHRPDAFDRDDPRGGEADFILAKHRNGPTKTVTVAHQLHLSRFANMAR

[8] = biological target: T6, Tyrosine-protein phosphatase non-receptor type 22 (Homo sapiens, UniProt Q9Y2R2); assay type: functional
T6 sequence (Q9Y2R2 whole entry): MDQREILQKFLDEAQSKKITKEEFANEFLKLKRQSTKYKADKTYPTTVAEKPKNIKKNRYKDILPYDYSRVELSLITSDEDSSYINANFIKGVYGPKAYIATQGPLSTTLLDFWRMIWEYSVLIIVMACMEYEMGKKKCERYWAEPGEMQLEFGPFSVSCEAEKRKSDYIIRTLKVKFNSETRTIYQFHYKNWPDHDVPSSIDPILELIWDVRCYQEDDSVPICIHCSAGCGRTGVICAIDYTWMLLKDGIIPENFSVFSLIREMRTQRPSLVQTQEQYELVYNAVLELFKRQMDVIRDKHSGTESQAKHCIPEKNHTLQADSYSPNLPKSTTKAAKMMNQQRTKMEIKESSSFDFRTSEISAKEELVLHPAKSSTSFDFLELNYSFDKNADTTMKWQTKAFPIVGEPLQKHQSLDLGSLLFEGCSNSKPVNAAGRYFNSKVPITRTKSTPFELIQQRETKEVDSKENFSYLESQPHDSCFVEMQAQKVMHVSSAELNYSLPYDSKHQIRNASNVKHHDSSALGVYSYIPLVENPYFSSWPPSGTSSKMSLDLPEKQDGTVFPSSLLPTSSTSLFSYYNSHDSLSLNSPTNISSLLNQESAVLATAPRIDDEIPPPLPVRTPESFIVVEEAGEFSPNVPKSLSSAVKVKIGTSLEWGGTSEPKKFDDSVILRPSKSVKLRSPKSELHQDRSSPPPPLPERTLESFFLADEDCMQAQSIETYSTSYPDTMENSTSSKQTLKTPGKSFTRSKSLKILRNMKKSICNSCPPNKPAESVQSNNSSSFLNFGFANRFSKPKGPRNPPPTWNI

[9] = biological target: T6, Tyrosine-protein phosphatase non-receptor type 22; assay type: functional; remark: listed apart in the source
[10] = biological target: T7, Tyrosine-protein phosphatase non-receptor type 7 (Homo sapiens, UniProt P35236); assay type: functional
T7 sequence (P35236 whole entry): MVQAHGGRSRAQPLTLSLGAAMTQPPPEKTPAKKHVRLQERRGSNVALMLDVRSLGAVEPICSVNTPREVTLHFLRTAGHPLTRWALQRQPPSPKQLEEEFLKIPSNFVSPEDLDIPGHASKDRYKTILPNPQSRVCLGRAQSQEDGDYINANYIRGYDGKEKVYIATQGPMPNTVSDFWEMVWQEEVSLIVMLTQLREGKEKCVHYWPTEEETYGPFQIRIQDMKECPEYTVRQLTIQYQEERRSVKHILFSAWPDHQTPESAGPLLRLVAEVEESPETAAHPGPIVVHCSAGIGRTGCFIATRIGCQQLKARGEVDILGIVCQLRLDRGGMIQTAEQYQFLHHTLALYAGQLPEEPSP

Genome polyprotein = Genome polyprotein (dengue virus type 2, UniProt P29990); assay: flavivirus cap methylation enzyme inhibition – biochemical, confirmation dose response, primary screen (AID 588689); assay type: functional
Genome polyprotein, sequence (P29990 2492-3391 limits assumed): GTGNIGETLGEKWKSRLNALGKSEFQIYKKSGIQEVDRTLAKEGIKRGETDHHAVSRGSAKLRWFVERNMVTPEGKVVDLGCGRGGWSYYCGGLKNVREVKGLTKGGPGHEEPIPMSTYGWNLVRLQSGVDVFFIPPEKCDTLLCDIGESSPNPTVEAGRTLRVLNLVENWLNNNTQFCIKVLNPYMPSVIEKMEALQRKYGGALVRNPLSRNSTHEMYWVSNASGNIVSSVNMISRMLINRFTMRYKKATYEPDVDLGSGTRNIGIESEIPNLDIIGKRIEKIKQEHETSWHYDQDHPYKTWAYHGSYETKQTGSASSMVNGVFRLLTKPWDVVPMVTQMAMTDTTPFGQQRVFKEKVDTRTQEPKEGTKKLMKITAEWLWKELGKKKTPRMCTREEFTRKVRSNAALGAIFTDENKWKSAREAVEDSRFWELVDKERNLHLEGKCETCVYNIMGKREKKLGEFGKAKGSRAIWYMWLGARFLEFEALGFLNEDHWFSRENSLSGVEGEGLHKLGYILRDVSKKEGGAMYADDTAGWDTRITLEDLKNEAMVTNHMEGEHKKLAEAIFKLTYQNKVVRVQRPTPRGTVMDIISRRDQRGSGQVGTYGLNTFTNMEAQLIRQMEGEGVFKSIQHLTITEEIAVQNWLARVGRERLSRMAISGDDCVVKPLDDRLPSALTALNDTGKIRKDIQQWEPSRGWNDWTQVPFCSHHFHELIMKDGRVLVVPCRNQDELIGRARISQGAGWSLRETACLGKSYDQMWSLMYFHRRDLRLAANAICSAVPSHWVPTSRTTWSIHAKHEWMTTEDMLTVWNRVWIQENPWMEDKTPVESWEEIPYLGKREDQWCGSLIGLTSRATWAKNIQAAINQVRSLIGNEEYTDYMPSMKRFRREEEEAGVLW

H9c2 = assay: cells; assay type: functional, cell-based; settings: Rattus norvegicus, H9c2, Myocardium;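 also: confirmatory concentration-response retest of ultra-high-throughput screening hits for modulation of myocardial damage; cell death induced by hydrogen peroxide oxidative stress; compound pretreatment for 60 min then peroxide exposure for 2 h; potency is for protecting the cells against peroxide damage rather than for killing them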
SUMO-activating enzyme = SUMO-activating enzyme (Homo sapiens, UniProt Q9UBT2); assay: blockers of UBC9-mediated SUMO conjugation – biochemical, AlphaScreen, SUMOylation inhibitor project, confirmation (AID 2018); assay type: functional
SUMO-activating enzyme, sequence (Q9UBE0 whole entry): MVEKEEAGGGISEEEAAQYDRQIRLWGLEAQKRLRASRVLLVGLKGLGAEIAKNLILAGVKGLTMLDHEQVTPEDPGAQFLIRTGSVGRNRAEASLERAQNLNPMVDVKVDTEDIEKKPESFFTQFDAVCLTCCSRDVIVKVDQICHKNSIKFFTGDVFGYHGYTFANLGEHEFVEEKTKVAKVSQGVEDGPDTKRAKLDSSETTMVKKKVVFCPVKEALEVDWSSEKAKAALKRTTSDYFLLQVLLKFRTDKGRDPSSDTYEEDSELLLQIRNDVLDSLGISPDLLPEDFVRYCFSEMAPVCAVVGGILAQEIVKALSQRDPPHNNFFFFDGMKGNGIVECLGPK
SUMO-activating enzyme, sequence (Q9UBT2 whole entry): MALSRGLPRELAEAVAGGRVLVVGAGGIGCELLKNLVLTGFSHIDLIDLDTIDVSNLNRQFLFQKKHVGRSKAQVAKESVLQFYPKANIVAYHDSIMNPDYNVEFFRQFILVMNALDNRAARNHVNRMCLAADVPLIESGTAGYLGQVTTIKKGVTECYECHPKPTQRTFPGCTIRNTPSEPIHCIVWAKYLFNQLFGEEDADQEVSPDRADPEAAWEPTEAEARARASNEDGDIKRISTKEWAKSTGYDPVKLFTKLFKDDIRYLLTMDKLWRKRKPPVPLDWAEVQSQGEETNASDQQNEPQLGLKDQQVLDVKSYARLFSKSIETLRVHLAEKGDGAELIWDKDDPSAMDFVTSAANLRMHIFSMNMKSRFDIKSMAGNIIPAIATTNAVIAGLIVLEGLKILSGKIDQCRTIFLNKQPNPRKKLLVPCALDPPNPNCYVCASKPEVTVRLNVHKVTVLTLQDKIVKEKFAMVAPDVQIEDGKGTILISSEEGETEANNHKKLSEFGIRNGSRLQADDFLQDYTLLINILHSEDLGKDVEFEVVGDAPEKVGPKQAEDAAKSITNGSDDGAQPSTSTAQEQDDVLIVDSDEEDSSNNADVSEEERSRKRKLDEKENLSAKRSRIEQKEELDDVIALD

Structure (SMILES): C/C=C(\C)CN1CCC(n2nccc2NC(=O)CCc2ccccc2)CC1
- EC50 [1]: 0.267 µM (active)
- EC50 [2]: 0.299 µM (active)

Structure (SMILES): COc1cccc(Cc2nnc(N3C(=O)[C@H]4CCCC[C@H]4C3=O)[nH]2)c1
- IC50 [3]: 1.63 µM (active)
- IC50 [4]: > 100 µM (not active)

Structure (SMILES): CCSC1(SCC)N=C(N)C2(C#N)C(c3ccc(F)cc3)C12C#N (stereo not given)
- EC50 (Protein RecA): 12.5 µM (active)
- EC50 [5]: 1.86 µM (active)
- AC50 [6]: 14 µM (active)
- AC50 [7]: 6.54 µM (active)

Structure (SMILES): Cn1nc(-c2ccc(F)cc2)cc1C(=O)O
- IC50 [3]: > 100 µM (inactive)
- IC50 [4]: > 100 µM (not active)

Structure (SMILES): CCCOC(=O)c1c(-c2ccc(C)cc2C)csc1NC(=O)C1C2CCC(O2)C1C(=O)O (stereo not given)
- IC50 [8]: > 79.4 µM (inactive)
- IC50 [9]: > 79.4 µM (inactive)
- IC50 [10]: > 79.4 µM (inactive)
- IC50 (Genome polyprotein): 55 µM (active)

Structure (SMILES): CC1CCCN(CCCNC(=O)c2ccc3c(c2)N(Cc2ccccc2F)C(=O)c2ccccc2S3(=O)=O)C1 (stereo not given)
- EC50 [1]: 0.944 µM (active)

Structure (SMILES): Nc1c(C(=O)N/N=C/c2cccnc2)oc2nc(-c3ccco3)cc(-c3ccco3)c12
- IC50 (H9c2): > 79 µM (inactive)
- IC50 (SUMO-activating enzyme): 8.88 µM (active)

Structure (SMILES): O=C1c2ccccc2C(=O)N1c1nnc(-c2ccc(Cl)cc2)[nH]1
- IC50 [3]: 2.49 µM (active)
- IC50 [4]: > 100 µM (not active)

Structure (SMILES): CN(C)C1(CNC(=O)c2ccc(Cl)c(S(=O)(=O)NCc3ccco3)c2)CCCCC1
- EC50 [1]: 0.119 µM (active)
